IC50 and physical form stability data for one compound are collected here from patent US11319311B2, “Crystalline forms of Actinomycin D for treatment of cancer” (TRANSGENEX NANOBIOTECH, INC., priority 2018, dated 2022).

Read-outs that look alike come from different tables or passages of the source.

One data set relates to SK-ES-1. Briefly: Monolayer cell culture IC50 (CellTiter-Glo viability), SK-ES-1. It is filed as cell-based, human. To be noted: Sarcoma, SK-ES-1, monolayer, 72 hours treatment, average of three replications. The procedure:
(§1) Cancer cell lines listed in Table 1 were subjected for testing anti-cancer potency or the half maximal inhibitory concentration (IC50) of the D-Actinomycin (DACT) molecular complexes.
(§2) The SK-ES-1, U-2 OS, and SAOS-2 cells were cultured in a growth medium that is ATCC-formulated McCoy's 5a Medium Modified, Catalog No. 30-2007. The PC-3, PANC-1, SK-Mel-5, A549, H460, and H1299 were cultured in a growth medium that is ATCC-formulated Dulbecco's Modified Eagle's Medium (DMEM), Catalog No. 30-2002. The cells were seeded on 96-well microtiter plates with 3500 cells per well and cultured in an incubator (Model 3120, Thermo Scientific, USA) with a constant temperature at 37° C. and 5% carbon dioxide (CO2) gas for 24 hours.
(§3) The new DACT-molecular complexes were made into a series with concentration of 200 nM to 40 nM, 8 nM, 1.6 nM, 0.32 nM, and 0.064 nM. 100 μl of each solution was then added into each well to bring out the final concentration of the drug treatment at 100 nM, 20 nM, 4 nM, 0.8 nM, 0.16 nM, or 0.032 nM, respectively.
(§4) The treated cells in the 96 well plate was then further cultured at the same conditions for 72 hours and then subjected for a final cell viability measurement. The measurement used a homogeneous method to determine the number of metabolically active cells presented in each of treatments. A testing reagent for the measurement is a mixture solution of the CellTiter-Glo® 2.0 reagent (CTG, Promega Cat #G9243, USA) and growth medium in 1:1 ratio in this respect.
(§5) The 96-well plate with the new molecular complex treated cells was taken out from incubator after the 72 hours of incubation, and the treatment solution in each well was removed using a multichannel pipette, and 100 μl of the testing reagent were added into each well. The plate was then placed on a plate shaker for 15 min. The plate was covered with a piece of aluminum foil to protect the CTG luminescence during the shaking time.
(§6) Then 90 μl of the 100 μl testing reagent were transferred into an opaque-walled 96-well plate for the CTG luminescence reading on a plate reader (SynergyH4 Hybrid Reader, Biotek, USA). The luminescence intensity of each treatment was positively correlated with the number of cells survived during the treatments.
(§7) All the treatment data was normalized by comparing with the control samples that had only growth medium without any molecular complexes. The half maximal inhibitory concentration (IC50) data was calculated using the nonlinear regression model and dose-responses (inhibition) curve built in the software. Each of treatments was performed in three replications each time and repeated three times for validation. The IC50 average […] (Avg) and standard deviation (STDV) were calculated based on the three replications.
For orientation: ATP-based viability assays read luminescence as a measure of living cells.

In another data set the test system is U-2 OS. In words: Monolayer cell culture IC50 (CellTiter-Glo viability), U-2 OS. It is filed as cell-based. To be noted: Sarcoma, U-2 OS, monolayer, 72 hours treatment, average of three replications. The procedure:
as §1, §2, §3, §4, §5, §6, §7

Another data set has as its system SK-Mel-5. In words: Monolayer cell culture IC50 (CellTiter-Glo viability), SK-Mel-5. It is filed as cell-based. To be noted: Skin, SK-Mel-5, monolayer, 72 hours treatment, average of three replications. The protocol:
as §1, §2, §3, §4, §5, §6, §7

For a further data set, the system named is PC-3. Briefly: Monolayer cell culture IC50 (CellTiter-Glo viability), PC-3. It is filed as cell-based. To be noted: Prostate, PC-3, monolayer, 72 hours treatment, average of three replications. The protocol: as §1, §2, §3, §4, §5, §6, §7
For another data set, the system named is PANC-1. Briefly: Monolayer cell culture IC50 (CellTiter-Glo viability), PANC-1. It counts as cell-based. To be noted: Pancreatic, PANC-1, monolayer, 72 hours treatment, average of three replications. The procedure:
as §1, §2, §3, §4, §5, §6, §7

The test system of a further data set is H460. Briefly: Monolayer cell culture IC50 (CellTiter-Glo viability), H460. It counts as cell-based. To be noted: Lung, 72 hours treatment, average of three replications. The procedure:
as §1, §2, §3, §4, §5, §6, §7

Data set [1] in a line: Accelerated stability studies (PXRD physical form stability). It is filed as physicochemical. Conditions: accelerated conditions 75% humidity and 40° C., one year, by PXRD. The protocol: Stability studies of the DACT novel forms were conducted using accelerated conditions (75% humidity and 40° C.) of which are obvious to the artisan in the field, for more than one year. […] Selected data of the novel complexes of DACT:methylparaben, propylparaben and diphenic acid proves this point.

[2] abbreviates: Test I, read-out: IC50 Test (I) Avg.
Setting [3] is: Test II, read-out: IC50 Test (II) Avg.
The mark [4] stands for this setting: Test III, read-out: IC50 Test (III) Avg.

By IC50 is commonly meant the point on the concentration scale where inhibition reaches its midpoint. Regarding `CCCOC(=O)c1ccc(O)cc1.Cc1c2oc3c(C)ccc(C(=O)NC4C(=O)NC(C(C)C)C(=O)N5CCCC5C(=O)N(C)CC(=O)N(C)C(C(C)C)C(=O)OC4C)c3nc-2c(C(=O)NC2C(=O)NC(C(C)C)C(=O)N3CCCC3C(=O)N(C)CC(=O)N(C)C(C(C)C)C(=O)OC2C)c(N)c1=O` (stereo not shown) [DACT-propylparaben], the 50% inhibitory concentration (IC50) in the data set on SK-ES-1 (setting [2]) was determined as 0.76 nM; in the data set with SK-ES-1 (setting [3]) it was 0.34 nM; with SK-ES-1 (setting [4]), 0.49 nM; in the data set with U-2 OS (setting [2]) it was 3.63 nM; with U-2 OS (setting [3]), 3.85 nM; with U-2 OS (setting [4]), 1.79 nM. Moreover, the IC50 stood at 0.39 nM with SK-Mel-5 (setting [2]); 0.27 nM with SK-Mel-5 (setting [3]); 2.59 nM in the data set with SK-Mel-5 (setting [4]); 7.68 nM with PC-3 (setting [2]); 4.52 nM in the data set on PC-3 (setting [3]); 6.34 nM in the data set with PC-3 (setting [4]). Also, the IC50 is 4.61 nM in the data set with PANC-1 (setting [2]); 1.71 nM in the data set with PANC-1 (setting [3]); 3.29 nM with PANC-1 (setting [4]); 0.21 nM in the data set on H460 (setting [2]); 0.3 nM in the data set on H460 (setting [3]); 0.15 nM with H460 (setting [4]). In addition, in data set [1], the physical form stability result is “stable”.
